Some test systems named below: M14 melanoma; OVCAR-5 ovarian; OVCAR-3 ovarian; LOX IMVI melanoma; SK-MEL-5 melanoma; OVCAR-8 ovarian; MALME-3M melanoma; ACHN renal; TK-10 renal; U251 CNS; EKVX NSCLC; PC-3 prostate; SNB-75 CNS; A498 renal; NCI-H23 lung; SF-295 CNS; UACC-62 melanoma.
Holding throughout (experiment): NCI-60 cell line screen, 48 h

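Step 1: Grow cells in 96-well plates. Step 2: Expose to compound for 48 hours at 5 concentrations. Step 3: Interpolate endpoints linearly; if unreached, use highest concentration. TGI is the concentration that stops growth completely.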

Consider `O=C(O)CCNC(=O)c1cc(N(CCBr)CCBr)c([N+](=O)[O-])cc1[N+](=O)[O-]`, for which the TGI with M14 melanoma, with OVCAR-5 ovarian, in the test on OVCAR-3 ovarian, with LOX IMVI melanoma, in the test with SK-MEL-5 melanoma and in the test with OVCAR-8 ovarian was > 100 µM in each case. Moreover, the TGI in the test with MALME-3M melanoma, in the test on ACHN renal, in the test with TK-10 renal, with U251 CNS, in the test on EKVX NSCLC and in the test with PC-3 prostate was > 100 µM in each case. Further, the TGI in the test with SNB-75 CNS, in the test on A498 renal, in the test on NCI-H23 lung and with SF-295 CNS was > 100 µM in each case.
As for `C[n+]1c2ccccc2n2c3ccccc3c(NCCc3ccccn3)c(C#N)c21`, the TGI in the test with M14 melanoma is 6.56 µM; with OVCAR-5 ovarian it was > 21.7 µM; in the test with OVCAR-3 ovarian, > 25.7 µM; in the test with LOX IMVI melanoma, 3.41 µM; with MALME-3M melanoma, 12 µM; in the test on ACHN renal, > 20.1 µM. The TGI was found to be 7.88 µM in the test on TK-10 renal; 12.7 µM in the test with U251 CNS; 19.5 µM with EKVX NSCLC; 23.9 µM in the test with PC-3 prostate; 5.22 µM in the test with SNB-75 CNS; 14 µM with A498 renal. Further, the TGI with NCI-H23 lung was 11 µM; in the test on SF-295 CNS, 15.9 µM.
Regarding `COC(=O)[C@@]1(Cc2ccc(O)cc2)C[C@@H]2Cc3ccccc3N2N1`, the TGI with M14 melanoma, in the test with OVCAR-5 ovarian, in the test on OVCAR-3 ovarian, with LOX IMVI melanoma, with SK-MEL-5 melanoma and in the test on OVCAR-8 ovarian was > 100 µM in each case. For the same compound, the TGI in the test on MALME-3M melanoma, in the test with UACC-62 melanoma, with ACHN renal, in the test on TK-10 renal, with U251 CNS and in the test with EKVX NSCLC was > 100 µM each time. Further, the TGI in the test with PC-3 prostate is > 100 µM; in the test on A498 renal, 97.3 µM; in the test on NCI-H23 lung, > 100 µM; with SF-295 CNS, > 100 µM.
In the case of `CC1CCCCN1CC(=O)c1ccc2c(c1)Sc1ccccc1O2` (centres undefined), the TGI in the test with M14 melanoma amounted to 38.3 µM; with OVCAR-5 ovarian it was 34.5 µM; in the test with OVCAR-3 ovarian, 27.8 µM; with LOX IMVI melanoma, 38.7 µM; in the test on OVCAR-8 ovarian, 30.8 µM; with MALME-3M melanoma, 26.8 µM. Further, the TGI worked out at 30.1 µM with UACC-62 melanoma; 28.8 µM in the test with ACHN renal; 42.5 µM with TK-10 renal; 31.9 µM in the test on U251 CNS; 28.7 µM in the test on EKVX NSCLC; 26.1 µM with PC-3 prostate. Further, the TGI with SNB-75 CNS stood at 22.9 µM; in the test on A498 renal it was 38.6 µM; in the test on NCI-H23 lung, 30.3 µM; with SF-295 CNS, 33 µM.
For `Cc1ccc(C2SCC(=O)N2c2ccc(-c3ccc(-n4c(-c5ccccc5)nc5ccccc5c4=O)cc3)cc2)cc1` (centres undefined), the TGI in the test on M14 melanoma, in the test with OVCAR-5 ovarian, in the test on OVCAR-3 ovarian, in the test with LOX IMVI melanoma, with SK-MEL-5 melanoma and in the test on OVCAR-8 ovarian was > 100 µM in each case. The TGI in the test on MALME-3M melanoma, in the test on UACC-62 melanoma, with ACHN renal, in the test with TK-10 renal, with U251 CNS and in the test on EKVX NSCLC was > 100 µM throughout. The TGI in the test with PC-3 prostate, in the test with A498 renal, in the test with NCI-H23 lung and in the test on SF-295 CNS was > 100 µM throughout.
As to `O=C(Nc1nc(C23CC4CC(CC(C4)C2)C3)cs1)c1cc2cc(Cl)ccc2oc1=O`, the TGI in the test on OVCAR-5 ovarian, in the test on OVCAR-3 ovarian, with LOX IMVI melanoma, in the test on SK-MEL-5 melanoma, in the test with OVCAR-8 ovarian and in the test with MALME-3M melanoma was > 100 µM in each case. The TGI in the test on ACHN renal, in the test with TK-10 renal, in the test on U251 CNS, with EKVX NSCLC, in the test with PC-3 prostate and with SNB-75 CNS was > 100 µM each time. In addition, the TGI in the test on A498 renal, with NCI-H23 lung and in the test with SF-295 CNS was > 100 µM each time.
Turning to `O=c1c2ccccc2nc2n1C(c1ccc([N+](=O)[O-])cc1)C2(c1ccccc1)c1ccccc1` (centres undefined), the TGI in the test on M14 melanoma, in the test on OVCAR-5 ovarian, in the test on OVCAR-3 ovarian, in the test with LOX IMVI melanoma, in the test with SK-MEL-5 melanoma and in the test on OVCAR-8 ovarian was > 100 µM in each case. Also, the TGI with MALME-3M melanoma, in the test with UACC-62 melanoma, with ACHN renal, with TK-10 renal, in the test on U251 CNS and in the test with EKVX NSCLC was > 100 µM throughout. For the same compound, the TGI with PC-3 prostate, in the test on A498 renal, in the test on NCI-H23 lung and in the test on SF-295 CNS was > 100 µM throughout.
